This note sets out measurements from patent US7674819B2 (Warner-Lambert Company LLC, priority 2005, dated 2010).

What is called IC50 is the concentration needed to halve the response being measured.

SMILES strings stand for the structures. Numbering of substitutions follows the chain as printed. Read-outs that look alike come from different tables or passages of the source.

The target in one assay is T1, hAR (Homo sapiens, UniProt P10275).
T1 sequence (P10275 1-920): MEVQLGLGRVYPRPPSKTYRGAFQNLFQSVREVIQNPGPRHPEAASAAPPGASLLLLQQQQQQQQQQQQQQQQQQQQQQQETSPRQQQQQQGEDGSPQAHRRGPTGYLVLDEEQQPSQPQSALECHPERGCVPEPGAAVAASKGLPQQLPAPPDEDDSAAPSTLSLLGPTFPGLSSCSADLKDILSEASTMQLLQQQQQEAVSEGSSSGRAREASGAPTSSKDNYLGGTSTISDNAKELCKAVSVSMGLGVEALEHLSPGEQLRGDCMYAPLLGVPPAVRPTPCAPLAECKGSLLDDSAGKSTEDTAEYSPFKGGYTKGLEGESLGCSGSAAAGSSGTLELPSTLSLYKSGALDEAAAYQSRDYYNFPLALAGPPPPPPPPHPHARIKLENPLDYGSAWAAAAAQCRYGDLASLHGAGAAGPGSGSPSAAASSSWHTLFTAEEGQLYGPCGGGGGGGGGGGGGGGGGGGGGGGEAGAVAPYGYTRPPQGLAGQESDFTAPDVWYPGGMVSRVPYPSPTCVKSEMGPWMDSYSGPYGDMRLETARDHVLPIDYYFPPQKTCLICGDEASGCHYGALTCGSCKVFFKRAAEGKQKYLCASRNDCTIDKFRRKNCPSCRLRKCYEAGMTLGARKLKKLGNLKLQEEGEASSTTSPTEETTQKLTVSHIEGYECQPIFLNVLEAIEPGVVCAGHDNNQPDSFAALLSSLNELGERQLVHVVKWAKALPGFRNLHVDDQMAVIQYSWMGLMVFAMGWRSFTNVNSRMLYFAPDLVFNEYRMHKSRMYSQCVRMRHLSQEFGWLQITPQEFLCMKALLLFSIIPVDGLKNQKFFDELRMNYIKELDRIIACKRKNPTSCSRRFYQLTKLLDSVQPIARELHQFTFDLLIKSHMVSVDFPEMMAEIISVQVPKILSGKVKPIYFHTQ
The assay can be described thus: Competitive binding of 3H-DHT to baculovirus/Sf9 generated hAR extracts. The note with it: one hour at 4° C., mean of multiple tests. A digest of the protocol: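 Baculovirus/Sf9-expressed hAR extract incubated with test compound, hydroxylapatite and 1 nM 3H-DHT tracer for 1 h at 4° C, then washed free of unbound tracer. Affinity given as concentration inhibiting half of maximal 3H-DHT binding.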

The target of a further assay is T2, androgen receptor (Homo sapiens, UniProt P10275).
T2 sequence (P10275 1-920 Q868H): T1 sequence (P10275 1-920) with Q868H
The assay can be described thus: AR Antagonist Cell Assay (MDA-MB453-MMTV clone 54-19, luciferase reporter). It is filed as cell-based. Conditions: inhibition of induction by DHT (final concentration at 100 μM), 17 hr, compound 0.32-1000 nM, mean of multiple tests. A digest of the protocol: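 MDA-MB453 breast tumour cells stably carrying an ARE-containing MMTV promoter driving firefly luciferase, plated overnight at 37° C in charcoal-treated serum medium. DHT added (final […]) and incubated 17 hr at 37° C. Luminescence read after adding luciferase buffer; values are means of multiple tests.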
In general terms: In a reporter assay the amount or activity of a reporter protein is the signal.

Where [1] appears, read: concentration at which one half of maximum binding of 1 nM 3H-DHT to hAR is inhibited, read-out: IC50.
Where [2] appears, read: IC50, concentration at which one half of maximum binding of 1 nM 3H-DHT to hAR is inhibited.

On to `CC1(C)CN(S(=O)(=O)c2cccc(C#N)c2)C(=O)C1Oc1ccc(C#N)c(C(F)(F)F)c1` (centres unmarked) [Example 88, 4-[1-(3-Cyano-benzenesulfonyl)-4,4-dimethyl-2-oxo-pyrrolidin-3-yloxy]-2-trifluoromethyl-benzonitrile], for which the IC50 amounted to 110 nM at hAR (setting [1]) and 134 nM on androgen receptor (read-out: IC50).
Take `CC1(C)CN(S(=O)(=O)c2cccs2)C(=O)C1Oc1ccc(C#N)c(C(F)(F)F)c1` (centres unmarked) [Example 93, 4-[4,4-Dimethyl-2-oxo-1-(thiophene-2-sulfonyl)-pyrrolidin-3-yloxy]-2-trifluoromethyl-benzonitrile]: the concentration for half-maximal inhibition (IC50) was 82 nM on hAR (setting [2]) and above 1000 nM at androgen receptor (read-out: IC50).
Consider `Cc1ccccc1S(=O)(=O)N1CC(C)(C)C(Oc2ccc(C#N)c(C(F)(F)F)c2)C1=O` (centres unmarked) [Example 94, 4-[4,4-Dimethyl-2-oxo-1-(toluene-2-sulfonyl)-pyrrolidin-3-yloxy]-2-trifluoromethyl-benzonitrile], for which the IC50 at hAR (setting [1]) is 150 nM; on androgen receptor (read-out: IC50), above 1000 nM.
`CC1(C)CN(S(=O)(=O)c2cccc(O)c2)C(=O)C1Oc1ccc(C#N)c(C(F)(F)F)c1` (centres unmarked) [Example 95, 4-[1-(3-Hydroxy-benzenesulfonyl)-4,4-dimethyl-2-oxo-pyrrolidin-3-yloxy]-2-trifluoromethyl-benzonitrile]: the half-inhibitory concentration (IC50) on hAR (setting [2]) is 8 nM; at androgen receptor (read-out: IC50), above 1000 nM.
With `CC1(C)CN(C2CCCC2)C(=O)C1Oc1ccc(C#N)c(C(F)(F)F)c1` (centres unmarked) [Example 98, 4-(1-Cyclopentyl-4,4-dimethyl-2-oxo-pyrrolidin-3-yloxy)-2-trifluoromethyl-benzonitrile], the IC50 on hAR (setting [1]) worked out at 169 nM; at androgen receptor (read-out: IC50), 315 nM.
For the compound `CSCN1CC(C)(C)C(Oc2ccc(C#N)c(C(F)(F)F)c2)C1=O` (centres unmarked) [Example 99, 4-(4,4-Dimethyl-1-methylsulfanylmethyl-2-oxo-pyrrolidin-3-yloxy)-2-trifluoromethyl-benzonitrile], the figures for the IC50 on hAR (setting [1]) and on androgen receptor were 113 nM and 36 nM, respectively.
For the compound `CC1(C)CN(C(=O)Cc2ccccc2)C(=O)C1Oc1ccc(C#N)c(C(F)(F)F)c1` (centres unmarked) [Example 101, 4-(4,4-Dimethyl-2-oxo-1-phenylacetyl-pyrrolidin-3-yloxy)-2-trifluoromethyl-benzonitrile], the results for the half-inhibitory concentration (IC50) at hAR (setting [1]) and on androgen receptor (read-out: IC50) were 174 nM and 83 nM, respectively.
For `CC1(C)CN(C(=O)c2ccc(C#N)cc2)C(=O)C1Oc1ccc(C#N)c(C(F)(F)F)c1` (centres unmarked) [Example 104, 4-[1-(4-Cyano-benzoyl)-4,4-dimethyl-2-oxo-pyrrolidin-3-yloxy]-2-trifluoromethyl-benzonitrile], the results for the IC50 on hAR (setting [1]) and on androgen receptor were 248 nM and 37 nM, respectively.
With `CC1(C)CN(C(=O)c2cccc(C#N)c2)C(=O)C1Oc1ccc(C#N)c(C(F)(F)F)c1` (centres unmarked) [Example 107, 4-[1-(3-Cyano-benzoyl)-4,4-dimethyl-2-oxo-pyrrolidin-3-yloxy]-2-trifluoromethyl-benzonitrile], the IC50 was 68 nM on hAR (setting [2]) and 653 nM on androgen receptor (read-out: IC50).
The like results for `COc1cc(OC2C(=O)N(C(C)c3ccccc3)CC2(C)C)ccc1C#N` (centres unmarked) [Example 110, 4-[4,4-Dimethyl-2-oxo-1-(1-phenyl-ethyl)-pyrrolidin-3-yloxy]-2-methoxy-benzonitrile] were, in that order, 87 nM and 126 nM.
In the case of `CC1(C)CN(Cc2nnc(-c3ccccc3O)o2)C(=O)C1Oc1ccc(C#N)c(C(F)(F)F)c1` (centres unmarked) [Example 112, 4-{1-[5-(2-Hydroxy-phenyl)-[1,3,4]oxadiazol-2-ylmethyl]-4,4-dimethyl-2-oxo-pyrrolidin-3-yloxy}-2-trifluoromethyl-benzonitrile], the half-inhibitory concentration (IC50) stood at 85 nM on hAR (setting [2]) and 198 nM on androgen receptor (read-out: IC50).
`CC1(C)CN(Cc2nnc(-c3cccc(O)c3)o2)C(=O)C1Oc1ccc(C#N)c(C(F)(F)F)c1` (centres unmarked) [Example 113, 4-{1-[5-(3-Hydroxy-phenyl)-[1,3,4]oxadiazol-2-ylmethyl]-4,4-dimethyl-2-oxo-pyrrolidin-3-yloxy)-2-trifluoromethyl-benzonitrile]: the IC50 was determined as 224 nM on hAR (setting [1]) and 651 nM on androgen receptor (read-out: IC50).
As for `CC1(C)CN(Cc2nnc(-c3ccc(O)cc3)o2)C(=O)C1Oc1ccc(C#N)c(C(F)(F)F)c1` (centres unmarked) [Example 114, 4-{1-[5-(4-Hydroxy-phenyl)-[1,3,4]oxadiazol-2-ylmethyl]-4,4-dimethyl-2-oxo-pyrrolidin-3-yloxy}-2-trifluoromethyl-benzonitrile], the figures for the IC50 at hAR (setting [2]) and at androgen receptor (read-out: IC50) were 41 nM and 656 nM, respectively.
Regarding `CC1(C)CN(Cc2nnc(-c3cccc(F)c3)o2)C(=O)C1Oc1ccc(C#N)c(C(F)(F)F)c1` (centres unmarked) [Example 115, 4-{1-[5-(3-Fluoro-phenyl)-[1,3,4]oxadiazol-2-ylmethyl]-4,4-dimethyl-2-oxo-pyrrolidin-3-yloxy}-2-trifluoromethyl-benzonitrile], the concentration for half-maximal inhibition (IC50) came to 142 nM at hAR (setting [1]) and 415 nM on androgen receptor (read-out: IC50).
Regarding `CC1(C)CN(Cc2nnc(-c3ccc(F)cc3)o2)C(=O)C1Oc1ccc(C#N)c(C(F)(F)F)c1` (centres unmarked) [Example 116, 4-{1-[5-(4-Fluoro-phenyl)-[1,3,4]oxadiazol-2-ylmethyl]-4,4-dimethyl-2-oxo-pyrrolidin-3-yloxy}-2-trifluoromethyl-benzonitrile], the figures for the IC50 at hAR (setting [1]) and at androgen receptor (read-out: IC50) were 206 nM and 369 nM, respectively.
As for `Cc1ccc(-c2nnc(CN3CC(C)(C)C(Oc4ccc(C#N)c(C(F)(F)F)c4)C3=O)o2)s1` (centres unmarked) [Example 117, 4-{4,4-Dimethyl-1-[5-(5-methyl-thiophen-2-yl)-[1,3,4]oxadiazol-2-ylmethyl]-2-oxo-pyrrolidin-3-yloxy}-2-trifluoromethyl-benzonitrile], the IC50 on hAR (setting [1]) came out at 259 nM; on androgen receptor (read-out: IC50), 117 nM.
With `COc1cccc(-c2nnc(CN3CC(C)(C)C(Oc4ccc(C#N)c(C(F)(F)F)c4)C3=O)o2)c1` (centres unmarked) [Example 118, 4-{1-[5-(3-Methoxy-phenyl)-[1,3,4]oxadiazol-2-ylmethyl]-4,4-dimethyl-2-oxo-pyrrolidin-3-yloxy}-2-trifluoromethyl-benzonitrile], the half-inhibitory concentration (IC50) on hAR (setting [1]) was found to be 170 nM; on androgen receptor (read-out: IC50), 381 nM.
On to `COc1ccc(-c2nnc(CN3CC(C)(C)C(Oc4ccc(C#N)c(C(F)(F)F)c4)C3=O)o2)cc1` (centres unmarked) [Example 119, 4-{1-[5-(4-Methoxy-phenyl)-[1,3,4]oxadiazol-2-ylmethyl]-4,4-dimethyl-2-oxo-pyrrolidin-3-yloxy}-2-trifluoromethyl-benzonitrile], for which the 50% inhibitory concentration (IC50) was 80 nM at hAR (setting [2]) and 199 nM at androgen receptor (read-out: IC50).
For `COc1ccccc1-c1nnc(CN2CC(C)(C)C(Oc3ccc(C#N)c(C(F)(F)F)c3)C2=O)o1` (centres unmarked) [Example 121, 4-{1-[5-(2-Methoxy-phenyl)-[1,3,4]oxadiazol-2-ylmethyl]-4,4-dimethyl-2-oxo-pyrrolidin-3-yloxy}-2-trifluoromethyl-benzonitrile], the results for the IC50 at hAR (setting [1]) and on androgen receptor (read-out: IC50) were 131 nM and 166 nM, respectively.
